The values that follow come from patent US7745656B2, “Stable no-delivering compounds” (Duke University, priority 1998, dated 2010).

This test relates to E. coli cells (pTC 190). The test is described as follows: Bacteriostatic test: nitrosylated compound solution sprayed onto E. coli culture plates. It counts as cell-based. As to the method:
Nitrosated 3-mercapto-1,2-propanediol was prepared with TBN bed in the Example 1. The nitrosylated compound was dissolved in 10 mL of deionized water (0.16 M) that had been passed through a CHELEX 100 column and bubbled with argon for 30 minutes. The resulting solution was red.
E. coli cells (pTC 190) were plated onto the culture plates and grown overnight at 40° C. The E. coli cells contained a plasmid encoding for ampicillin resistance. The solution was then sprayed onto a culture plate (LB/Amp/Glucose).
This plate was then sprayed with the nitrosylated compound solution at the 24th hour.

For the molecule `O=NSCC(O)CO` (stereo not drawn) [nitrosylated 3-mercapto-1,2-propanediol], the “Bacterial growth on culture plate sprayed with the compound solution” value (0.16 M in deionized water, compound prepared with TBN, LB/Amp/Glucose plate, read after 24 hours) is “growth of a few colonies, all localized on one side of the plate”. In addition, the “Bacterial growth on plate with an established E. coli lawn, sprayed at the 24th hour” value (0.16 M solution sprayed on a continuous lawn, read after another 24 hours) is listed as “lawn of colonies that was approximately as dense as prior to application”. Under “conclusion of Example 3”, the Overall antibacterial result is “bacteriostatic”.
